Measured values as given in ChEMBL document CHEMBL1154587, “Discovery of novel sphingosine kinase 1 inhibitors” (Bioorg Med Chem Lett, 2009).
The source made the active and inactive calls. The calls are words filed in the database; no cut-off is given here.

Legend:
Sphingosine kinase 1 = Sphingosine kinase 1 (Homo sapiens, UniProt Q9NYA1); experiment: Inhibition of human sphingosine kinase 1 by off chip mobility shift assay
[1] = target: T1, Sphingosine kinase 2 (Homo sapiens) (UniProt Q9NRA0); experiment: Inhibition of sphingosine kinase 2 at 10 uM
T1 sequence (whole entry): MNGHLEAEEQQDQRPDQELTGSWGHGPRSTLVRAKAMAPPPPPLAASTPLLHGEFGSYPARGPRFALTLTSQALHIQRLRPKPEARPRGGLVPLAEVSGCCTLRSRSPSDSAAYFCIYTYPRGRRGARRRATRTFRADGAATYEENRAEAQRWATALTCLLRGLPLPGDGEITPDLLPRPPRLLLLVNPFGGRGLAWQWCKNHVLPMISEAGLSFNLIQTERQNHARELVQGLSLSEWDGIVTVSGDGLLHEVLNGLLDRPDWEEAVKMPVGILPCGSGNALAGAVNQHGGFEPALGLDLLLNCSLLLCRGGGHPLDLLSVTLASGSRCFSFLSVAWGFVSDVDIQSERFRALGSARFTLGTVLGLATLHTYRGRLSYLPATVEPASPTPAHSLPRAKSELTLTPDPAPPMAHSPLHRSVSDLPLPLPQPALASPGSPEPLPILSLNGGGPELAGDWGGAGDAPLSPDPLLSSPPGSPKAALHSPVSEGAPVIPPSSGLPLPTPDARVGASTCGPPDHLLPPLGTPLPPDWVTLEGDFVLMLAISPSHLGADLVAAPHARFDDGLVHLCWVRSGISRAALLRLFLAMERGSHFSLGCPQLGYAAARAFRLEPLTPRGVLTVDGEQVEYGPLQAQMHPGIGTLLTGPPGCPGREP

Sphingosine kinase 1, sequence (Q9NYA1 whole entry): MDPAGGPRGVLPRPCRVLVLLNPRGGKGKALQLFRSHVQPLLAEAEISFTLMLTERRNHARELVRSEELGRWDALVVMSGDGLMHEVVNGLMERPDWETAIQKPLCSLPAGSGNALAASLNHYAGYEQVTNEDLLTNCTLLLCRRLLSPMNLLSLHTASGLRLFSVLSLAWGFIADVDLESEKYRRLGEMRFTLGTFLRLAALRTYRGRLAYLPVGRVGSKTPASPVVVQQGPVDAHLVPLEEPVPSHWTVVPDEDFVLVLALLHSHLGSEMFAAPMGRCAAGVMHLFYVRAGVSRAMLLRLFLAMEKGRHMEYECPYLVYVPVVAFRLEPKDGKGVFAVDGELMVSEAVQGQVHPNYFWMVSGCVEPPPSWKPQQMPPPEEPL

Structure (SMILES)	IC50 (Sphingosine kinase 1)	inhibition [1]
CCCCCCCCc1ccc(NC(=O)[C@@H](N)[C@@H](C)O)cc1	0.65 µM	inactive
CCCCCCCCc1ccc(NC[C@@H](N)CO)cc1		inactive
CCCCCCCCc1ccc(NC(=O)C(C)(N)CO)cc1 (racemic)	> 10 µM	inactive
CCCCCCCCCCCCC/C=C/[C@@H](O)[C@H](CO)N(C)C		inactive
CCCCCCCCc1ccc(CNC(=O)[C@H]2NCC[C@@H]2O)cc1	0.43 µM	inactive
CCCCCCCCc1ccc(NC(=O)[C@@H](N)[C@@H](O)CC)cc1 (racemic)		inactive
CCCCCCCCc1ccc(CNC(=O)C(N)CCO)cc1 (racemic)		inactive
CCCCCCCCc1ccc(NC(=O)[C@H]2NC[C@@H](O)[C@@H]2O)cc1	8.3 µM	inactive
CCCCCCCCc1ccc(CNC(=O)C(N)CO)cc1 (racemic)	> 10 µM	inactive
CCCCCCCCc1ccc(CCNC(=O)[C@H]2NCC[C@@H]2O)cc1	6.2 µM	inactive
CCCCCCCCc1ccc(NC(=O)[C@H]2NCC[C@H]2O)cc1		inactive
CCCCCCCCc1ccc(NC[C@H]2NCC[C@@H]2O)cc1		inactive
CCCCCCCCc1ccc(NC(=O)[C@H]2NCC[C@@H]2O)cc1		inactive
CCCCCCCCc1ccc(NCC(N)CCO)cc1 (configuration not stated)	> 10 µM	inactive

Now from value to molecule:

IC50 (Sphingosine kinase 1)	inhibition [1]	Structure (SMILES)
	inactive	CCCCCCCCc1ccc(NC(=O)[C@H](N)[C@@H](C)O)cc1
	inactive	CCCCCCCCc1ccc(NC(=O)[C@H](N)[C@H](C)O)cc1
	inactive	CCCCCCCCc1ccc(NC(=O)[C@H](N)CCO)cc1
	inactive	CCCCCCCCc1ccc(NC(=O)[C@@H](N)CCCCO)cc1
> 10 µM	inactive	CCCCCCCCc1ccc(NC(=O)[C@@H](N)COC)cc1
	inactive	CCCCCCCCc1ccc(NC(=O)[C@@H](N)CO)cc1
	inactive	CCCCCCCCc1ccc(NC(=O)[C@@H](N)[C@H](C)O)cc1
2.1 µM	inactive	CCCCCCCCc1ccc(NC(=O)C(N)C(C)(C)O)cc1 (racemic)
	inactive	CCCCCCCCc1ccc(NC(=O)[C@@H](N)CCO)cc1
	inactive	CCCCCCCCc1ccc(NC(=O)[C@H](CO)NC)cc1
	inactive	CCCCCCCCc1ccc(NC(=O)C(N)CCO)cc1 (racemic)
> 10 µM	inactive	CCCCCCCCc1ccc(NC(=O)C(N)CCCO)cc1 (racemic)
	inactive	CCCCCCCCc1ccc(NC(=O)[C@H](N)CO)cc1
